The values that follow come from paper PMC10641913 (ACS Medicinal Chemistry Letters, 2023).

Each structure is given as a SMILES string. Values joined by “and” are separate entries in the source; they are usually repeats but may differ in a detail not shown here. Equal entries are not always repeated. Bounds are passed on as bounds.

Assay [1] relates to S. mansoni. Details: key: “+++” indicates a complete reduction of worms at 50 mg/kg dosing (×5); “++” indicates complete reduction of worms at 500 mg/kg dosing (×5); “+” indicates less than 90% worm reduction at 500 mg/kg dosing (×5); “0” indicates no effect at 500 mg/kg dosing (×5). To be noted: mouse model, dosing ×5; ref [1]; cited from earlier work.
Assay [2] has as its system H. nana. Details: key: “+++” indicates a complete reduction of worms at 25 mg/kg dosing (×1); “++” indicates complete reduction of worms at 500 mg/kg dosing (×1); “+” indicates less than 90% worm reduction at 500 mg/kg dosing (×1); “0” indicates no effect at 500 mg/kg dosing (×1). As to conditions: mouse model, dosing ×1; ref [1]; cited from earlier work.
For assay [3], the target named is Sm.TRPMPZQ (Schistosoma mansoni, UniProt A0A5K4F0X5). Description: cell-based. The assay is classed as cell-based. As to conditions: for this work: EC50 (μM) Sm.TRPMPZQ / EC50: HEK293 transient expression, mean ± SEM, n ≥ 3 independent transfections; for EC50: read-out: this work: EC50 (μM) Sm.TRPMPZQ. The protocol: (§1) This was done using a fluorescence-based reporter assay to measure changes in cytosolic Ca^2+ in HEK293 cells transiently expressing the individual TRPMPZQ ion channels.
(§2) Sprague et. al. Supporting Information
(§3) Cell Culture and transfection. Activation of the three TRPMPZQ orthologs1 (Sm.TRPMPZQ, Eg.TRPMPZQ and Mc.TRPMPZQ) was measured using a Ca2+ reporter assay, following transient transfection of codon-optimized constructs (Genscript) into HEK293 cells.
(§4) The HEK293 cell line (ATCC CRL-1573.3) was authenticated by STR profiling (ATCC), and cells were evaluated for mycoplasma contamination by monthly scheduled testing (LookOut® Mycoplasma PCR Detection Kit, Sigma). HEK293 cells were cultured at 37 °C in a humidified incubator in Dulbecco’s Modified Eagle Medium (DMEM) supplemented with 10% fetal bovine serum (FBS), penicillin (100 units/mL), streptomycin (100 μg/mL), and L-glutamine (290 μg/mL). Cells were transfected using Lipofectamine-2000 at a density of 3x10^6 cells per petri dish (100 mm diameter) 24 h prior to replating into 384 well plates for functional assays.
(§5) Ca2+ imaging assays. Ca2+ imaging assays were performed using a Fluorescence Imaging Plate Reader (FLIPR TETRA, Molecular Devices). HEK293 cells (naïve or transfected) were seeded (20,000 cells/well) in a black-walled clear-bottomed poly-d-lysine coated 384-well plate (Greiner Bio-One) in DMEM growth media supplemented with 10% FBS. After 24 h, growth medium was removed, and cells were loaded with a fluorescent Ca2+ indicator (Fluo-4 NW dye, Invitrogen) by incubation (20 µL per well, 1 h at 37°C) in Hanks' balanced salt solution (HBSS) assay buffer containing probenecid (2.5 mM) and HEPES (20 mM). Drug dilutions were prepared in assay buffer, without probenecid and dye, in ‘V’-shape 384-well plates (Greiner Bio-one, Germany). After indicator loading, the Ca2+ assay was performed at room temperature. Basal fluorescence was monitored for 20 s, then 5 μL of each drug added, and the signal (raw fluorescence units) was monitored over an additional 250 s. Changes in fluorescence were calculated by subtracting the average basal fluorescence (averaged values between 0 to 20 s) from the maximum fluorescence value. These values were normalized to the response of (±)-PZQ at the corresponding TRPMPZQ channel and plotted. Concentration-response curves were generated in GraphPad Prism (v.
(§6) 9.5.1) using the default three -parameter curve fitting and constraining the bottom of the curve to 0%. The reported EC 50 values represent the mean ± SEM of n ≥ 3 independent transfections. […]

Assay [4] deals with S. mansoni. To be noted: ref [1]; cited from earlier work.
Assay [5] relates to E. multilocularis protoscoleces. Description: Cestode motility assay on protoscoleces. The assay is classed as cell-based, Echinococcus multilocularis. To be noted: for IC50: Echinococcus multilocularis. As to the method: To determine IC50 values, concentration–response curves were obtained at multiple time points (Figure 2E–G).
Figure 2 E. multilocularis protoscoleces after treatment with (A) DMSO, (B) (±)-PZQ (1 μM), (C) (R)-2 (30 μM), and (D) (S)-2 (100 μM). (E–G) Concentration–response motility graphs of E. multilocularis protosoleces after treatment with (±)-PZQ (blue circles), (R)-2 (red circles), and (S)-2 (purple circles) after (E) 0.5 h, (F) 12 h, and (G) 24 h. Data are plotted as % motility vs vehicle (DMSO) control (mean ± SEM). […]
Cestode motility assays . Protoscoleces of E. multilocularis strain MB17 were isolated from metacestode material grown in experimentally infected gerbils (kindly provided by Prof. Dr. K. Brehm, University of Würzburg, Germany). Extraction and acti vation of protoscoleces, as well as subsequent motility assays were performed as described previously. 2 In short, protoscoleces were activated by 10% DMSO for 3 h at 37°C, in a humid atmosphere, with 5% CO 2 and left to recover overnight in DMEM (Biochrom, Berlin, Germany) supplemented with 10% FBS (Biochrom) at 37°C, in a humid atmosphere, with 5% CO 2. The next day, 25 protoscoleces were distributed into individual wells of a white, flat -bottom 384 well plate (Huberlab, Aesch, Switzerland). PZQ analogs were added […]
The assay plate was sealed with a clear view seal foil (Huberlab), and motility was measured in a live cell imaging system (Nikon TE2000E, Hamatsu ORCA ER

The target of assay [6] is Eg.TRPMPZQ (Echinococcus granulosus, UniProt W6UVV9). The assay is classed as cell-based. As to conditions: Eg.TRPMPZQ and Mc.TRPMPZQ; for activity at cestode TRPMPZQ orthologs (in words): both cestode channels. The protocol:
as §1, §2, §3, §4, §5, §6

Sequence of Sm.TRPMPZQ (A0A5K4F0X5 entry or part of it): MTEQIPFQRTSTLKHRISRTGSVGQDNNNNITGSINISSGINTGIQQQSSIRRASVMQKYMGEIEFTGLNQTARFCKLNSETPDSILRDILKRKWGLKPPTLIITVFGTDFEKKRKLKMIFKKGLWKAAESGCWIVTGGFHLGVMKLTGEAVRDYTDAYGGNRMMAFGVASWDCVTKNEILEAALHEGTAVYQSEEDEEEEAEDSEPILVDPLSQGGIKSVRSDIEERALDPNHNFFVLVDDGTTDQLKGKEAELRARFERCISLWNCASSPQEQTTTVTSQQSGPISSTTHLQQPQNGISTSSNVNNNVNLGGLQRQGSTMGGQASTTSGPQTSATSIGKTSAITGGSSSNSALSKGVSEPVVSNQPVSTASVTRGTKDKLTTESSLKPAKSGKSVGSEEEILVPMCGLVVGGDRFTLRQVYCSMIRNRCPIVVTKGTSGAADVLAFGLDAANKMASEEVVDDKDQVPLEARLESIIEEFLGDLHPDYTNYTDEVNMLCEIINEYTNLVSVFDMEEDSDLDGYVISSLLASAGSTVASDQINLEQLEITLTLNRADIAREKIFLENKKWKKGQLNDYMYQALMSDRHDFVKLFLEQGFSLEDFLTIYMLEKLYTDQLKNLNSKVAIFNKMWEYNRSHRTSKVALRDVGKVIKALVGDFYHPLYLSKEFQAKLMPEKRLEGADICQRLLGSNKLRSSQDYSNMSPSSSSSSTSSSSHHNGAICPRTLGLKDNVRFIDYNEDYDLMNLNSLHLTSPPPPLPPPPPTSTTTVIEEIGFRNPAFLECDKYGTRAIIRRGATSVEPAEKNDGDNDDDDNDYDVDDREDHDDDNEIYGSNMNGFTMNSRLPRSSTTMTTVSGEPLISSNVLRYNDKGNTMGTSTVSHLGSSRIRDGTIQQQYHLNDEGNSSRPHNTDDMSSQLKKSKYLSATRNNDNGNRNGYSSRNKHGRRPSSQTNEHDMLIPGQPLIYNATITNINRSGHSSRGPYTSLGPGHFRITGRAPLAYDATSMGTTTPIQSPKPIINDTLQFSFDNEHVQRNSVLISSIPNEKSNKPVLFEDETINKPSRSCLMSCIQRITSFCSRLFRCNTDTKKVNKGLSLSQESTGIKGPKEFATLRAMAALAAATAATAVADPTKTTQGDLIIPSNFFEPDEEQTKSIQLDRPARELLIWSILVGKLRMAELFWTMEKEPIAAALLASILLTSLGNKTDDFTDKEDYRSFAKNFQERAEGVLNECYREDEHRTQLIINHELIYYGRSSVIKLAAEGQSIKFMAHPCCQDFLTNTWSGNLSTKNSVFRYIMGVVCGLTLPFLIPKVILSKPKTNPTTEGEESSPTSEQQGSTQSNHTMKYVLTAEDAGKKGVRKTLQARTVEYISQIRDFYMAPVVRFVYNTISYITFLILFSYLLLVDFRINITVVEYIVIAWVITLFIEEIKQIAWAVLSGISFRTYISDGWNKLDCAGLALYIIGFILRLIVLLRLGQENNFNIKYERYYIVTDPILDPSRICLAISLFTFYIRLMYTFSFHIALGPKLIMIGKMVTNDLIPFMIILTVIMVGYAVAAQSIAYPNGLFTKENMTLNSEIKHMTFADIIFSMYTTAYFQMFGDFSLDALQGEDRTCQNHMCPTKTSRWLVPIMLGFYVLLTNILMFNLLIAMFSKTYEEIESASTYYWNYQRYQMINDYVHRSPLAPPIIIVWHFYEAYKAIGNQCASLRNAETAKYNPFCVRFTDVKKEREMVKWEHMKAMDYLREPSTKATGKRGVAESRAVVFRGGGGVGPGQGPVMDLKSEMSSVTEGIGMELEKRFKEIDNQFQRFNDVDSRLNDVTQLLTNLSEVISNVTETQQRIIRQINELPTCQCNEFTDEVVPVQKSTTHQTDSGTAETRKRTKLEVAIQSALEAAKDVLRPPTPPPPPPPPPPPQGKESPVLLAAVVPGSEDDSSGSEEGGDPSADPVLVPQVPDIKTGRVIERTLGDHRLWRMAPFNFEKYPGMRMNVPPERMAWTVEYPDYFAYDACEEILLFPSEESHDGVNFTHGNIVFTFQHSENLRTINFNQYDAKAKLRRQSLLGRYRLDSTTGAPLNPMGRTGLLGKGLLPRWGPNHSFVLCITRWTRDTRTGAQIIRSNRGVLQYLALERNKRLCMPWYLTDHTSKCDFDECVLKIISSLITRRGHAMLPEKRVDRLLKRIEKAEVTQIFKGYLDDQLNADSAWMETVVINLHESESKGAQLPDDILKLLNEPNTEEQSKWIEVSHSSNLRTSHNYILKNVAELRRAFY
Sequence of Eg.TRPMPZQ (W6UVV9 entry or part of it): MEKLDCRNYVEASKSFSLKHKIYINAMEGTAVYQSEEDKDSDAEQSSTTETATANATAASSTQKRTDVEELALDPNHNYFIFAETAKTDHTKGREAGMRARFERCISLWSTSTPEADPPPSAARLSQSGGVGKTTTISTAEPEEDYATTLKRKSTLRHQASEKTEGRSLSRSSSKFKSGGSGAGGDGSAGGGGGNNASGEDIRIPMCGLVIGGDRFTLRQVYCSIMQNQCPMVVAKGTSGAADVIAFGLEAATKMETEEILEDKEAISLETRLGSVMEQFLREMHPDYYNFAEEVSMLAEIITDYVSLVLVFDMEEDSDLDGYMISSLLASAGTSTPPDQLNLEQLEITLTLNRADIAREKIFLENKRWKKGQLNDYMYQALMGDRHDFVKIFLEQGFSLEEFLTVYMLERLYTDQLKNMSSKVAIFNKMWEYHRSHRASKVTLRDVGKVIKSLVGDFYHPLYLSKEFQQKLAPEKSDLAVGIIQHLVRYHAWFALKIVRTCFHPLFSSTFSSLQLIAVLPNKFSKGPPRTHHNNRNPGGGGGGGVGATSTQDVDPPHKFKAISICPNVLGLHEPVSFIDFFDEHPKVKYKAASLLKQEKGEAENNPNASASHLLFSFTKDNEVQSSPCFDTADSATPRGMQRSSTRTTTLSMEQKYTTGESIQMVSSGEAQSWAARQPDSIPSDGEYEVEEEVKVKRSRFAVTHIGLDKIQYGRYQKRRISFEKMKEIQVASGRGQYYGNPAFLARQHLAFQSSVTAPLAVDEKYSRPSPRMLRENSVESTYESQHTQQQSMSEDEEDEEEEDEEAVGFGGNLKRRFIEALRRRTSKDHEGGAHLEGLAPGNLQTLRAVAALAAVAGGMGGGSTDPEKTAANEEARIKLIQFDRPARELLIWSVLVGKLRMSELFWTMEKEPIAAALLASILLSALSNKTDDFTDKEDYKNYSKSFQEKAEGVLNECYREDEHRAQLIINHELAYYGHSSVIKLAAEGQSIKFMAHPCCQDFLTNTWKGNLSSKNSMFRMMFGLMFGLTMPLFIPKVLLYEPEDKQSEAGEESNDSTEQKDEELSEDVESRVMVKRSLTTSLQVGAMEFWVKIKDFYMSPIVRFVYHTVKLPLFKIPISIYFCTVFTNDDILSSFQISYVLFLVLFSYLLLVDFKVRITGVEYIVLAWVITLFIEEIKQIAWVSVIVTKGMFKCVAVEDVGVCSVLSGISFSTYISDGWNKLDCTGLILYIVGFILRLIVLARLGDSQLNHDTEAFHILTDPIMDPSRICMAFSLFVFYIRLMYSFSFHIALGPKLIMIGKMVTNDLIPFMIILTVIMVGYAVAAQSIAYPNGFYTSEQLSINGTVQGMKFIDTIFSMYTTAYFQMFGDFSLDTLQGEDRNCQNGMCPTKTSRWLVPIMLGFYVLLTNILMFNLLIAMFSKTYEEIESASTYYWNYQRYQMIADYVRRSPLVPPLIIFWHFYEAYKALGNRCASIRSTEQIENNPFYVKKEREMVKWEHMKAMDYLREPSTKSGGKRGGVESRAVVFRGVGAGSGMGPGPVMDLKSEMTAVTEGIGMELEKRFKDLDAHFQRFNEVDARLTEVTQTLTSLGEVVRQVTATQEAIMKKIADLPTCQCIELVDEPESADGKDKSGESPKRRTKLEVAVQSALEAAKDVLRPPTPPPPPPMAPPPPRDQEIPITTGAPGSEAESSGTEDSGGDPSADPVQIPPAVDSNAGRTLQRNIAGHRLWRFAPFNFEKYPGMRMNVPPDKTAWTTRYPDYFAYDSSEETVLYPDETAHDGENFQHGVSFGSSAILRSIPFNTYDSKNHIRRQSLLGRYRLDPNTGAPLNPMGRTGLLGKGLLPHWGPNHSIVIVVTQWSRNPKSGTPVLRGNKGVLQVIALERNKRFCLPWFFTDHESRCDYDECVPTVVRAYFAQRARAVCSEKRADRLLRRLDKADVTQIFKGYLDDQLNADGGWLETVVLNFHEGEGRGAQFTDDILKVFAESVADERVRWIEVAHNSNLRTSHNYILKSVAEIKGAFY

On to `CNc1ccc(C(=O)N2CC(=O)N3CCc4ccccc4C3C2)cc1` (stereo not shown) [Compound 4], for which, in assay [1], the “previous studies S. mansoni in vivo (activity grade, worm reduction)” value is on record as “++”. In addition, the “previous studies H. nana in vivo (activity grade, worm reduction)” value in assay [2] was “+++”. Besides, the “this work: EC50 (μM) Sm.TRPMPZQ” value in assay [3] was “inactive”. Besides, the “previous studies S. mansoni in vitro (activity grade)” value (from here on “previous studies S. mansoni in vitro”) in assay [4] is on record as 0 (“0” indicates no effect at ≤320 μM).

Turning to `O=C(c1ccc([N+](=O)[O-])cc1)N1CC(=O)N2CCc3ccccc3C2C1` (stereo not shown) [Compound 3], in assay [1], the “previous studies S. mansoni in vivo (activity grade, worm reduction)” value is “+”. The “previous studies H. nana in vivo (activity grade, worm reduction)” value in assay [2] is recorded as “++”. In assay [3], the “this work: EC50 (μM) Sm.TRPMPZQ” value was “inactive”. The “previous studies S. mansoni in vitro” value in assay [4] is reported as 0 (“0” indicates no effect at ≤320 μM).

Turning to `O=C(c1cccnc1)N1CC(=O)N2CCc3ccccc3[C@H]2C1` [(S)-2], the “previous studies S. mansoni in vivo (activity grade, worm reduction)” value in assay [1] is recorded as 0. Besides, the “previous studies H. nana in vivo (activity grade, worm reduction)” value in assay [2] was “++”. For the same compound, the IC50 in assay [5] (after 24 h) was approximately 30 µM. Besides, the “this work: EC50 (μM) Sm.TRPMPZQ” value in assay [3] is “inactive”. The “previous studies S. mansoni in vitro” value in assay [4] is given as 0 (“0” indicates no effect at ≤320 μM).

Turning to `CN(C)c1ccc(C(=O)N2CC(=O)N3CCc4ccccc4C3C2)cc1` (stereo not shown) [Compound 5], the “previous studies S. mansoni in vivo (activity grade, worm reduction)” value in assay [1] is “++”. Moreover, the “previous studies H. nana in vivo (activity grade, worm reduction)” value in assay [2] is on record as “+++”. Moreover, the “this work: EC50 (μM) Sm.TRPMPZQ” value in assay [3] was “inactive”. In addition, the “previous studies S. mansoni in vitro” value in assay [4] is recorded as 0 (“0” indicates no effect at ≤320 μM).

For the compound `O=C(C1CCCCC1)N1CC(=O)N2CCc3ccccc3C2C1` (stereo not shown) [Compound 1, praziquantel], the “previous studies S. mansoni in vivo (activity grade, worm reduction)” value in assay [1] is recorded as “+++”. For the same compound, the “previous studies H. nana in vivo (activity grade, worm reduction)” value in assay [2] was “+++”. In addition, the “contraction of the protoscoleces (in words)” value in assay [5] ((±)-PZQ 1 μM, (R)-2 30 μM, (S)-2 100 μM, compared with vehicle control) is reported as “sustained contraction”. In assay [5] (12 h postincubation), this compound showed an IC50 of approximately 0.1 µM. For the same compound, the “effect of prolonged treatment on protoscoleces (in words)” value in assay [5] (after 24 h) is recorded as “toxic”. Moreover, the “effect of low concentrations on motility (in words)” value in assay [5] (low concentrations, early time points (0.5 h)) is recorded as “stimulated motility”. Further, the “previous studies S. mansoni in vitro” value in assay [4] is “+++ (“+++” indicates a maximal effect ≤3.2 μM)”.

For `O=C(C1CCCCC1)N1CC(=O)N2CCc3ccccc3[C@@H]2C1` [(R)-PZQ, reference compound], in assay [1], the “previous studies S. mansoni in vivo (activity grade, worm reduction)” value is recorded as “+++”. The “previous studies H. nana in vivo (activity grade, worm reduction)” value in assay [2] is “+++”. The “previous studies S. mansoni in vitro” value in assay [4] is “+++ (“+++” indicates a maximal effect ≤3.2 μM)”.

Turning to `O=C(C1CC1)N1CC(=O)N2CCc3ccccc3C2C1` (stereo not shown) [Compound 8], the “previous studies S. mansoni in vivo (activity grade, worm reduction)” value in assay [1] was “+”. In addition, in assay [6], the “concentrations activating both cestode TRPMPZQ representatives” value was more than 10 µM and the “activity at cestode TRPMPZQ orthologs (in words)” value is listed as “clearly active”. Further, the “previous studies H. nana in vivo (activity grade, worm reduction)” value in assay [2] is on record as “++”. Further, in assay [3], the “activity at Sm.TRPMPZQ (in words)” value was “Little activity” and the “this work: EC50 (μM) Sm.TRPMPZQ” value is “inactive”. Moreover, the “previous studies S. mansoni in vitro” value in assay [4] is listed as 0 (“0” indicates no effect at ≤320 μM).

Regarding `O=C(c1cccnc1)N1CC(=O)N2CCc3ccccc3C2C1` (racemic) [(±)-2], the “previous studies S. mansoni in vivo (activity grade, worm reduction)” value in assay [1] is “+”. The “activity at cestode TRPMPZQ orthologs (in words)” value in assay [6] was “low-micromolar potency”. In addition, the “previous studies H. nana in vivo (activity grade, worm reduction)” value in assay [2] is given as “+++”. In assay [3], the “activity at Sm.TRPMPZQ (in words)” value is reported as “little activity” and the “this work: EC50 (μM) Sm.TRPMPZQ” value is “inactive”. The “previous studies S. mansoni in vitro” value in assay [4] was “+ (“+” indicates a less than maximal effect at ≤320 μM)”.

As to `Nc1ccc(C(=O)N2CC(=O)N3CCc4ccccc4C3C2)cc1` (stereo not shown) [Compound 6], in assay [1], the “previous studies S. mansoni in vivo (activity grade, worm reduction)” value is “++”. For the same compound, the “previous studies H. nana in vivo (activity grade, worm reduction)” value in assay [2] is “+++”. Besides, the EC50 in assay [3] is 11.6 µM and 12 µM. The “previous studies S. mansoni in vitro” value in assay [4] is recorded as “++ (“++” indicates a maximal effect ≤320 μM)”.

As to `O=C(C1CCCCC1)N1CC(=O)N2CCc3ccccc3[C@H]2C1` [(S)-PZQ, reference compound], the “previous studies S. mansoni in vivo (activity grade, worm reduction)” value in assay [1] was “+”. Further, the “previous studies H. nana in vivo (activity grade, worm reduction)” value in assay [2] was “++”. Moreover, in assay [4], the “previous studies S. mansoni in vitro” value was “++ (“++” indicates a maximal effect ≤320 μM)”.

On to `N[C@H]1CC[C@@H](C(=O)N2CC(=O)N3CCc4ccccc4C3C2)CC1` (stereo partly shown) [Compound 7], for which the “previous studies S. mansoni in vivo (activity grade, worm reduction)” value in assay [1] is reported as 0. In addition, in assay [6], the “activity at cestode TRPMPZQ orthologs (in words)” value is recorded as “only weakly active”. Further, in assay [2], the “previous studies H. nana in vivo (activity grade, worm reduction)” value is “+”. Also, in assay [3], the “activity at Sm.TRPMPZQ (in words)” value is “lacked activity” and the “this work: EC50 (μM) Sm.TRPMPZQ” value is “inactive”. In addition, the “previous studies S. mansoni in vitro” value in assay [4] was 0 (“0” indicates no effect at ≤320 μM).

Regarding `O=C(c1cccnc1)N1CC(=O)N2CCc3ccccc3[C@@H]2C1` [(R)-2], the “previous studies S. mansoni in vivo (activity grade, worm reduction)” value in assay [1] was “++”. Besides, in assay [2], the “previous studies H. nana in vivo (activity grade, worm reduction)” value was “+++”. In assay [5] (after 24 h), this compound showed an IC50 of approximately 3 µM. The EC50 in assay [3] was more than 100 µM. For the same compound, the “previous studies S. mansoni in vitro” value in assay [4] was 0 (“0” indicates no effect at ≤320 μM).
